Among the data in paper PMC10374545, “A small molecule inhibitor of PTP1B and PTPN2 enhances T cell anti-tumor immunity” (Nature Communications, 2023) are reversibility of inhibition and IC50 values, retold here.

Structures are written as SMILES.

What all share (assay type): biochemical
One assay has as its target T1, PTP1B (Homo sapiens, UniProt P18031).
T1 construct: PTP1B, residues 1-321; made in house; host or cells: E. coli BL21(DE3)
T1 sequence (P18031 1-321): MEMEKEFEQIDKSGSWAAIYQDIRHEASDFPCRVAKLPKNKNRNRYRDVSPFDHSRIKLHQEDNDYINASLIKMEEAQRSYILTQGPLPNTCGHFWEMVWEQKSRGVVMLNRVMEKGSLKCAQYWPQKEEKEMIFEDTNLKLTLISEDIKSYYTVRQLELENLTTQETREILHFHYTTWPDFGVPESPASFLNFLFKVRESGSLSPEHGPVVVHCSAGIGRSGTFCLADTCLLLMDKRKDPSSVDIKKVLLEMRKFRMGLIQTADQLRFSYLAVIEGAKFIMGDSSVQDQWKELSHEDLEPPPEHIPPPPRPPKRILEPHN
The assay is described as follows: Jump-dilution assay. Particulars: 30 min preincubation, 50-fold dilution into 100 µM DiFMUP. As for the experimental part:
(§1) The reaction was allowed to proceed for 10 min under room temperature and was quenched by addition of a 160 µM solution of bpV(Phen). The fluorescence signal was measured using a CLARIOstar Plus Microplate Spectrophotometer (BMG Labtech) using excitation and emission wavelengths of 340 nm and 450 nm, respectively. Data were fitted using Prism GraphPad 9.2.0.

A further assay addresses T2, PTPN2 (Homo sapiens, UniProt P17706).
T2 construct: PTPN2, residues 1-387; made in house; host or cells: E. coli BL21(DE3)
T2 sequence (P17706 1-387 isoform P17706-2): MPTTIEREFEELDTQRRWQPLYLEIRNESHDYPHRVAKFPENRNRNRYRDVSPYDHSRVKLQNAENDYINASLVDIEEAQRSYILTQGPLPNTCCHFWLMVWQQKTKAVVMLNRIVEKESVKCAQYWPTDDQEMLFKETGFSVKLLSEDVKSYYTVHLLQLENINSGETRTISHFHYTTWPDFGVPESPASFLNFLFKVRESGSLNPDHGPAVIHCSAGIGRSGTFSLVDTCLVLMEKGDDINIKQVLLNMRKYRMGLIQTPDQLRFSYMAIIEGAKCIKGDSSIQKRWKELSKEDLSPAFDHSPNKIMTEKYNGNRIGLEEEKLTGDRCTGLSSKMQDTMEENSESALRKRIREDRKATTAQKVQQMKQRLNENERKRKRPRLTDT
The experiment in a line: Jump-dilution assay. Particulars: 30 min preincubation, 50-fold dilution into 100 µM DiFMUP. The protocol:
as §1

The next assay deals with T3, FAP-1 (Homo sapiens, UniProt Q12923).
T3 construct: FAP1, residues 2124-2485; made in house; host or cells: E. coli BL21(DE3)
T3 sequence (Q12923 2124-2485): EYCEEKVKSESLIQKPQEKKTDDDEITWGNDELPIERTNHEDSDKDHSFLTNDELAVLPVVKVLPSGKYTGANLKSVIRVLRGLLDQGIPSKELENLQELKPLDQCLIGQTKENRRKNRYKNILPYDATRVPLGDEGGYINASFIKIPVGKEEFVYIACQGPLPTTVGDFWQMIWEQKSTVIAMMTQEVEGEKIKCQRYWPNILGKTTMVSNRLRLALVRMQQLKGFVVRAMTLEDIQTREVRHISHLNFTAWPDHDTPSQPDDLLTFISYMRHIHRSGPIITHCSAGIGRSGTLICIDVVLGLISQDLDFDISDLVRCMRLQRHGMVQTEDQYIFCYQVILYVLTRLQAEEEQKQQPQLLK
The experiment in a line: PTP selectivity, DiFMUP assay. Particulars: DiFMUP at Km. As for the experimental part:
(§2) E. coli BL21(DE3) (Novagen) was used as an expression host and the induction of protein expression was carried out in LB media with 1 mM IPTG at 18 °C overnight. Cell pellets were stored at −80 °C for subsequent protein purification.
(§3) Protein purification of PTPs for enzymatic assays was conducted at 4 °C. Frozen cell pellets were lysed by sonication in 40 ml cold lysis buffer (50 mM Tris-HCl, pH 8.0, 150 mM NaCl, 5 mM imidazole, and 1 mM PMSF) per litre cell pellet. Cell lysates were clarified by centrifugation using a Beckman JA-18 rotor for 15 min at 5308 x g. The supernatant was incubated with HisPur Ni-NTA resin (Thermo Scientific) for 2 h and then packed onto a column and washed with 50 resin volume of buffer A (50 mM Tris-HCl, pH 8.0, 500 mM NaCl, 5 mM imidazole). The His-tagged proteins were eluted with Buffer B (50 mM Tris-HCl, pH=8.0, 500 mM NaCl, 300 mM imidazole,). Pooled His-protein-containing fractions were concentrated, loaded onto a HiLoad 26/600 Superdex 75 column (GE Healthcare Biosciences) and eluted with storage buffer (50 mM Tris-HCl, pH 8.0, 150 mM NaCl, 1 mM DTT, 10% glycerol). […] The protein was aliquoted and stored at −80 °C.
(§4) The PTP kinetic assay was modified from previous reported protocols[73],[74]. PTP activity was assayed using 6,8-Difluoro-4-Methylumbelliferyl Phosphate (DiFMUP, Invitrogen, cat# D6567,) as a substrate in 3,3-Dimethylglutaric acid (DMG) buffer (50 mM DMG, pH 7.0, 1 mM EDTA, 18 mM NaCl, 0.01% Triton X-100) at 25 °C. To determine the IC50 values, the assays were performed in 96-well plates (Corning Costar 3915). […] The final reaction volume is 200 µl. The reaction was allowed to proceed for 10 min and then quenched by the addition of 40 µl of a 160 µM solution of bpV(Phen) (Sigma-Aldrich, cat# SML0889). The fluorescence signal was measured using a CLARIOstar Plus Microplate Spectrophotometer (BMG Labtech) using excitation and emission wavelengths of 340 nm and 450 nm, respectively. Data were fitted using Prism GraphPad 9.2.0.
(§5) To determine the mode of inhibition, the reactions were initiated by the addition of enzyme (final concentration for PTP1B and PTPN2 was 0.05 nM) to the reaction mixtures (0.2 ml) containing various concentrations of DiFMUP with different concentrations of the inhibitor. The reaction was allowed to proceed for 10 min and then quenched by the addition of 40 µl of a 160 µM solution of bpV(Phen) (Sigma-Aldrich, cat# SML0889). The fluorescence signal was measured using a CLARIOstar Plus Microplate Spectrophotometer (BMG Labtech) using excitation and emission wavelength of 340 nm and 450 nm, respectively. Data were fitted using Prism GraphPad 9.2.0. For selectivity studies, the inhibition assay for other PTPs were performed under the same conditions as used for PTP1B and PTPN2 except with different DiFMUP concentration corresponding to the Km of the PTP studied.

A further assay has as its target T4, VHZ (Homo sapiens, UniProt Q9BVJ7).
T4 construct: VHZ, residues 1-150; made in house; host or cells: E. coli BL21(DE3)
The experiment in a line: PTP selectivity, DiFMUP assay. Particulars: DiFMUP at Km. The protocol:
as §2, §3, §4, §5

Another assay deals with T5, LYP (Homo sapiens, UniProt Q9Y2R2).
T5 construct: LYP/PTPN22, residues 1-294; made in house; host or cells: E. coli BL21(DE3)
T5 sequence (Q9Y2R2 1-294): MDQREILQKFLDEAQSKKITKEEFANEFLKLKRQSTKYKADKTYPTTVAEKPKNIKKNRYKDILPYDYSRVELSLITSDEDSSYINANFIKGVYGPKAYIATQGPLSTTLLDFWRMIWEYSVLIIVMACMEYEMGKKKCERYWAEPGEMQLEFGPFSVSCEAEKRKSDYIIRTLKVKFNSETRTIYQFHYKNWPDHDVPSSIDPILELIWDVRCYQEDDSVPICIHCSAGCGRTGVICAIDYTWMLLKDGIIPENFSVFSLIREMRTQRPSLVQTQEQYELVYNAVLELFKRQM
The experiment in a line: PTP selectivity, DiFMUP assay. The following applies: DiFMUP at Km. The protocol:
as §2, §3, §4, §5

A further assay addresses T6, LMPTP (Homo sapiens, UniProt P24666).
T6 construct: LMWPTP, residues 1-158; made in house; host or cells: E. coli BL21(DE3)
The experiment in a line: PTP selectivity, DiFMUP assay. Particulars: DiFMUP at Km. As for the experimental part:
as §2, §3, §4, §5

In a further assay the target is T7, PTPε (Homo sapiens, UniProt P23469).
T7 construct: PTPε, residues 107-697; made in house; host or cells: E. coli BL21(DE3)
T7 sequence (P23469 107-697): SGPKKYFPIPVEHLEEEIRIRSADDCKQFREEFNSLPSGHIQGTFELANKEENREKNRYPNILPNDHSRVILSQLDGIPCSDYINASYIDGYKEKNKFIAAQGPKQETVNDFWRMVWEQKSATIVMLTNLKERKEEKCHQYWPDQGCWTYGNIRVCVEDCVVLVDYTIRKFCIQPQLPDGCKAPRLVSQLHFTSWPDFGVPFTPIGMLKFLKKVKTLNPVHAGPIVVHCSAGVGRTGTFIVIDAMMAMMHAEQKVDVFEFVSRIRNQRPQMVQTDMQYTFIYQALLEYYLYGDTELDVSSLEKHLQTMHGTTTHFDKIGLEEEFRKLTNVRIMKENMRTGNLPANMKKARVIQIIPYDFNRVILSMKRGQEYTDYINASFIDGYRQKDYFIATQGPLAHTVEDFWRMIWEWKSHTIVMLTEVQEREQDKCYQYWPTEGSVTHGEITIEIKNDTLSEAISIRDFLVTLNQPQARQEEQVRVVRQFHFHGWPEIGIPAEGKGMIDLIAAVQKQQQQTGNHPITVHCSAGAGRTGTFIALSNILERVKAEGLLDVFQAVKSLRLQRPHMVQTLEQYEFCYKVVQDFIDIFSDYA
The assay is described as follows: PTP selectivity, DiFMUP assay. The following applies: DiFMUP at Km. As for the experimental part: as §2, §3, §4, §5

T4 sequence (Q9BVJ7 whole entry, the tested form may be a part): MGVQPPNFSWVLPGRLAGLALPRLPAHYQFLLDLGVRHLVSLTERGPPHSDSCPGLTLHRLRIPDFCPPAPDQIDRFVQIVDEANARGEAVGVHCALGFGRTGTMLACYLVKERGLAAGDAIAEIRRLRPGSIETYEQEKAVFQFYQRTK
T6 sequence (P24666 whole entry, the tested form may be a part): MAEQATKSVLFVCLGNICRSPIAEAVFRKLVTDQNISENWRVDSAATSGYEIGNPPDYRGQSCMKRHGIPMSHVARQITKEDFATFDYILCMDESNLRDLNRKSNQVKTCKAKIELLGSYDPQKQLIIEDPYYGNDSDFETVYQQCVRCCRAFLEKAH

Broadly, the IC50 is the point on the concentration scale where inhibition reaches its midpoint. Lower therefore signals higher potency. Consider `CC(C)(O)CCOc1ccc2cc(O)c(N3CC(=O)NS3(=O)=O)c(F)c2c1` [Compound 182, 5-(1-Fluoro-3-hydroxy-7-(3-hydroxy-3-methylbutoxy)naphthalen-2-yl)−1,2,5-thiadiazolidin-3-one 1,1-dioxide], for which the reversibility of inhibition result on PTP1B and at PTPN2 was “reversible” throughout. Besides, the IC50 was more than 20 µM against FAP-1; more than 20 µM on VHZ; more than 20 µM against LYP; more than 20 µM against LMPTP; 0.8 ± 0.1 µM against PTPε.
